Molecular target: T1, HpxJ (Klebsiella michiganensis, UniProt B5B0L4)
T1 sequence (B5B0L4 1-413): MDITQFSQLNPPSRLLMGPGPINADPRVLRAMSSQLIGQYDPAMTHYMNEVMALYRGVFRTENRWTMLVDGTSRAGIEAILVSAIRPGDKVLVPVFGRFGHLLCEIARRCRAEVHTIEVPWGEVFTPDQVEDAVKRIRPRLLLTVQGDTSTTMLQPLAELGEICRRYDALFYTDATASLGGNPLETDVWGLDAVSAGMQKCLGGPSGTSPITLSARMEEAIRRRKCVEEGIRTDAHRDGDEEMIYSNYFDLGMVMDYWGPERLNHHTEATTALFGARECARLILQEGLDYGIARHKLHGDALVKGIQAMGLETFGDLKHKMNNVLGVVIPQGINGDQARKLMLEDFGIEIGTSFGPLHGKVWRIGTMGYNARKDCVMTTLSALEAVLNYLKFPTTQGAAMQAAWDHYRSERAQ
Experiment: pre-steady-state PLP to PMP conversion
Assay type: biochemical
Conditions: amino donor; glyoxylate as acceptor in HPLC assay

SMILES: N[C@@H](CC(=O)O)C(=O)O [aspartate]
- rate of first half reaction: an order of magnitude faster than the next fastest substrate, aspartate
